Data on 14 molecules can be found in patent US10221190B2, “Biguanide compounds and use thereof” (IMMUNOMET THERAPEUTICS INC., priority 2013, dated 2019).

Where only a bound is given, the exact number is not on record here.

The subject of one test is Miapaca-2 cell. The test can be described thus: Inhibitory activity against cancer cells (MTT cell viability), Miapaca-2. The class given is cell-based. As to conditions: Homo sapiens, MIA PaCa-2, Miapaca-2, 48 hr incubation. As to the method:
(§1) The inhibitory activities of biguanide derivatives against cancer cells were evaluated in the cell line SK-MEL-28 derived from human Melanoma cell, Miapaka-2 cell line derived from human pancreatic cancer cell and HCT116 cell line derived from human colorectal cancer cell by measuring the concentration that inhibits 50% of the growth of the cell lines (the half maximal inhibitory concentration, IC50).
(§2) Firstly, SK-MEL-28 cells were grown to be density of 5,000 cells/well in RPMI-1640 media supplemented with 10% (v/v) bovine calf serum, on 96-well plates for 16 hr. To measure the IC50 of each compound, the cells were incubated for 48 hr with the 100 mM PBS stock compounds at an amount of 10 mM, 1 mM, 200 uM, 40 uM, 8 uM, 1.6 uM, 0.32 uM or 0.064 uM; 50 mM PBS and EtOH stock compounds at an amount of 1 mM, 200 uM, 40 uM, 8 uM, 1.6 uM, 0.32 uM and 0.064 uM; and 50 mM DMSO stock compounds at an amount of 100 uM, 25 uM, 6.25 uM, 1.56 uM, 0.39 uM, 0.10 uM and 0.02 uM, respectively. To test the viable cells after incubation with each compound, the cell cultures were incubated additionally for 2 hr in the presence of MTT. The produced formazan crystals were dissolved with dimethyl sulfoxide and then measured by detecting the absorbance at 560 nm.
(§3) After the 48 hr incubation, the viable cells were counted on the well plates treated with the compounds of the Examples relative to the count of the viable cells on the non-treated plates, and then was represented as the cell viability (%). By using the cell viability (%) result, the cell viability curve was plotted, and IC50 was calculated from the curve to evaluate the inhibitory activity against cancer cells.
(§4) The inhibitory activities of biguanide derivatives against cancer cells of Miapaca-2 cell and HCT116 cell were evaluated according to the substantially same method as described in SK-MEL-28 cell, except that DMEM media supplemented with 10% (v/v) bovine calf serum was used instead of RPMI-1640 media supplemented with 10% (v/v) bovine calf serum for SK-MEL-28 cell.

The test system of a further test is HCT116 cell. The experiment in a line: Inhibitory activity against cancer cells (MTT cell viability), HCT116. It is filed as cell-based, human. Particulars: Homo sapiens, HCT 116, 48 hr incubation. As to the method: as §1, §2, §3, §4
In test [1] the test system is lung cancer cell line A549. The test can be described thus: Inhibitory activity on Oxygen Consumption Rate (OCR). The class given is cell-based. Particulars: A549, 3 hrs, 10 uM compound; phenformin set to 100%, untreated control set to 0%. The protocol: The cellular metabolic activity of the compounds on Oxygen Consumption Rate (OCR) was evaluated, because the biguanide drugs have anticancer activity by inhibiting the oxidative phosphorylation of cancer cell.
A549 cells were inoculated at 5×10^3 cells in RPMI1640 media on XF96 cell culture plate and cultured for 24 h (temp; 37° C., 5% CO2) to make the cell adhere to the plate.
After 24 hr, A549 cells were treated by 10 μM of the compounds or phenformin, and were washed with XF analysis media using Prep station to remove the original media. A549 cells were retreated by compounds or phenformin and incubated for 1 hr (temp; 37° C., Non-CO2) in Prep station. While incubation in Prep station, sensor cartridge was calibrated for 1 hr. Then, the calibrated sensor cartridge was inserted to the cell plate to analyze OCR.
When OCR of phenformin as a reference drug was set to 100% and OCR of untreated control was set to 0%, the OCR of tested compounds was calculated by converting the measured OCR to be the relative percentage value (%).

The test system of the next test is SK-MEL-28 cells. The experiment in a line: Inhibitory activity against cancer cells (MTT cell viability), SK-MEL-28. It is filed as cell-based. As to conditions: Homo sapiens, SK-MEL-28, 48 hr incubation. As to the method:
as §1, §2, §3

For orientation: IC50 means the concentration that inhibits the measured activity by half. Low readings indicate inhibition by little substance, high ones a need for much substance. For `Cl.N=C(NC(=N)N1CCC(CO)C1)Nc1ccc(OC(F)(F)F)cc1` (stereo not drawn) [Example 20, N1-3-hydroxy methyl pyrrolidine-N5-(4-trifluoromethoxy)phenyl biguanide], the figures for the IC50 in the test with Miapaca-2 cell, with HCT116 cell and in the test on SK-MEL-28 cells were 58.6 µM, above 100 µM and 134 µM, respectively. In addition, the “OCR inhibition relative to phenformin (%)” value in test [1] worked out at 15%.
Consider `N=C(NC(=N)N1CCCC1)Nc1ccc(C(N)=O)cc1` [Example 23, N1-pyrrolidine-N5-4-benzamide biguanide], for which the concentration for half-maximal inhibition (IC50) is 2340 µM in the test with Miapaca-2 cell, above 100 µM with HCT116 cell and above 1000 µM in the test on SK-MEL-28 cells.
Taken in the same sequence, the figures for `N=C(NC(=N)N1CCCC1)Nc1ccc(SCC(=O)N2CCCCC2)cc1` [Example 28, N—(N-(4-(2-oxo-2-(piperidin-1-yl)ethylthio)phenyl)carbamimidoyl)pyrrolidine-1-carboximidamide] were 209 µM, above 100 µM and 176 µM.
Turning to `Cl.N=C(NC(=N)N1CCC(O)CC1)Nc1ccc(OC(F)(F)F)cc1` [Example 18, N1-4-hydroxy piperidine-N5-(4-trifluoromethoxy)phenyl biguanide], the IC50 in the test with Miapaca-2 cell is 47.9 µM; in the test with HCT116 cell, above 100 µM; in the test on SK-MEL-28 cells it was 182 µM. The “OCR inhibition relative to phenformin (%)” value in test [1] worked out at 57%.
`CN1CCN(C(=N)NC(=N)Nc2ccc(F)c(OC(F)(F)F)c2)CC1.Cl` [Example 40, N1-4-methyl piperazine-N5-(4-fluoro-3-trifluoromethoxy)phenyl biguanide] gave an IC50 with HCT116 cell of 35.2 µM. The “OCR inhibition relative to phenformin (%)” value in test [1] is listed as 42.9%.
The matching figures for `C[C@H]1CCCN1C(=N)NC(=N)Nc1ccc(OC(F)(F)F)cc1.Cl` [Example 16]: 39.8 µM and 13%.
Regarding `CC(C)c1ccc(NC(=N)NC(=N)N2CCCC2)cc1.Cl` [Example 6, N1-pyrrolidine-N5-(4-isopropyl)phenyl biguanide], the IC50 in the test on HCT116 cell is 28.6 µM. Further, the “OCR inhibition relative to phenformin (%)” value in test [1] worked out at 44%.
The matching figures for `Cl.N=C(NC(=N)N1CCc2ccccc2C1)N1CCCC1` [Example 89, N-(imino(pyrrolidin-1-yl)methyl)-3,4-dihydroisoquinoline-2(1H)-carboximidamide]: 59.5 µM and 44%.
`N=C(NC(=N)N1CCCC1)Nc1ccc(/C=C/C(=O)N2CCCCC2)cc1` [Example 24, (E)-N—(N-(4-(3-oxo-3-(piperidin-1-yl)prop-1-enyl)phenyl)carbamimidoyl)pyrrolidine-1-carboximidamide]: the IC50 in the test with Miapaca-2 cell, in the test with HCT116 cell and with SK-MEL-28 cells was above 100 µM each time.
On to `N=C(NC(=N)N1CC[C@H](O)C1)Nc1ccc(OC(F)(F)F)cc1` [Example 17, N1-(S)-3-hydroxy pyrrolidine-N5-(4-trifluoromethoxy)phenyl biguanide], for which the IC50 in the test with Miapaca-2 cell is 113 µM; in the test on HCT116 cell, above 100 µM; in the test on SK-MEL-28 cells, 184 µM.
With `CS(=O)(=O)C1CCN(C(=N)NC(=N)Nc2ccc(OC(F)(F)F)cc2)CC1` [Example 53, N1-4-(methylsulfonyl)piperidine-N5-(4-trifluoromethoxy)phenyl biguanide], the values for the IC50 in the test on Miapaca-2 cell, in the test with HCT116 cell and with SK-MEL-28 cells were above 100 µM, 182 µM and above 100 µM, respectively.
For the molecule `[H]/N=C(/N)N/C(=N/[H])NCCc1ccccc1` [Phenformin, phenformin, reference compound], the IC50 with Miapaca-2 cell was 119 µM; with HCT116 cell, 12.5 µM; with SK-MEL-28 cells it was 266 µM.
For the molecule `N=C(NCc1ccc2c(c1)OCO2)NC(=N)N1CCCC1` [Example 1, N1-pyrrolidine-N5-(benzo[1,3]dioxol-5-ylmethyl) biguanide], the IC50 was 36.2 µM in the test on Miapaca-2 cell, above 100 µM in the test on HCT116 cell and 107 µM in the test on SK-MEL-28 cells.
Regarding `Cl.N=C(NC(=N)N1CCC(O)CC1)Nc1cccc(Oc2ccccc2)c1` [Example 22, N1-4-hydroxy piperidine-N5-(3-phenoxy)phenyl biguanide], in the test with Miapaca-2 cell, inhibition was half-maximal at 106 µM (IC50). In test [1], the “OCR inhibition relative to phenformin (%)” value is reported as 74%.
